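Briefly, cells in 96-well plates were exposed to five compound concentrations for 48 h, and endpoints were estimated by linear interpolation. Here, GI50 denotes the concentration required for 50% inhibition of growth. TGI: total growth inhibition.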
How the values were obtained:
Experiment in all cases: DTP human tumour cell line panel, 48 h
OVCAR-8 ovarian = tested on: OVCAR-8 ovarian
COLO 205 colon = tested on: COLO 205 colon
EKVX NSCLC = tested on: EKVX NSCLC
SK-MEL-28 melanoma = tested on: SK-MEL-28 melanoma
OVCAR-4 ovarian = tested on: OVCAR-4 ovarian
CCRF-CEM leukemia = tested on: CCRF-CEM leukemia
M14 melanoma = tested on: M14 melanoma
NCI/ADR-RES ovarian = tested on: NCI/ADR-RES ovarian
RXF 393 renal = tested on: RXF 393 renal
MDA-MB-435 = tested on: MDA-MB-435

O=C(C(=O)n1ncc(Cl)c(Cl)c1=O)n1ncc(Cl)c(Cl)c1=O
TGI (OVCAR-8 ovarian): > 59.9 µM | TGI (COLO 205 colon): 29 µM | TGI (EKVX NSCLC): > 83.8 µM | TGI (SK-MEL-28 melanoma): 59.3 µM | TGI (OVCAR-4 ovarian): 36.1 µM | TGI (CCRF-CEM leukemia): 29.7 µM | TGI (M14 melanoma): > 68.7 µM

COc1cccc2cc(N(C)c3nc(C)nc4c3CCC4)ccc12
GI50 (NCI/ADR-RES ovarian): < 0.01 µM | TGI (NCI/ADR-RES ovarian): 16.1 µM | GI50 (OVCAR-8 ovarian): < 0.01 µM | TGI (OVCAR-8 ovarian): 19.2 µM | GI50 (COLO 205 colon): < 0.01 µM | TGI (COLO 205 colon): < 0.01 µM | GI50 (EKVX NSCLC): < 0.01 µM | TGI (EKVX NSCLC): 30.7 µM | GI50 (RXF 393 renal): < 0.01 µM | TGI (RXF 393 renal): 23.7 µM | GI50 (SK-MEL-28 melanoma): 4.7 µM | TGI (SK-MEL-28 melanoma): 21.6 µM | GI50 (OVCAR-4 ovarian): < 0.0104 µM | TGI (OVCAR-4 ovarian): 20 µM | GI50 (CCRF-CEM leukemia): < 0.01 µM | TGI (CCRF-CEM leukemia): 14.7 µM | GI50 (M14 melanoma): < 0.01 µM | TGI (M14 melanoma): 14 µM

O=C(NNc1ccc(Cl)cc1)C1CCC(CNS(=O)(=O)c2ccccc2Cl)CC1 (stereo not drawn)
GI50 (NCI/ADR-RES ovarian): 15.5 µM | TGI (NCI/ADR-RES ovarian): 50.7 µM | GI50 (OVCAR-8 ovarian): 21.6 µM | TGI (OVCAR-8 ovarian): > 100 µM | GI50 (EKVX NSCLC): 11 µM | TGI (EKVX NSCLC): 56.2 µM | GI50 (RXF 393 renal): 24.5 µM | TGI (RXF 393 renal): 65.7 µM | GI50 (MDA-MB-435): 4.77 µM | TGI (MDA-MB-435): 24.1 µM | GI50 (CCRF-CEM leukemia): 39.2 µM | TGI (CCRF-CEM leukemia): > 100 µM | GI50 (M14 melanoma): 2.89 µM | TGI (M14 melanoma): 10.7 µM

COc1ccc2nc(C(=O)c3ccccc3)c(C)cc2c1
TGI (OVCAR-8 ovarian): > 46.3 µM | TGI (COLO 205 colon): > 34.5 µM | TGI (EKVX NSCLC): > 100 µM | TGI (RXF 393 renal): 17.3 µM | TGI (SK-MEL-28 melanoma): > 62.2 µM | TGI (OVCAR-4 ovarian): > 100 µM | TGI (CCRF-CEM leukemia): > 100 µM | TGI (M14 melanoma): 13.4 µM

CC(=O)OC12C=C(C)C(C(C)C1)C1C(=O)N(CCN3CCCCC3)C(=O)C12 (stereo not drawn)
GI50 (NCI/ADR-RES ovarian): > 50 µM | TGI (NCI/ADR-RES ovarian): > 50 µM | GI50 (OVCAR-8 ovarian): > 50 µM | TGI (OVCAR-8 ovarian): > 50 µM | GI50 (COLO 205 colon): > 50 µM | TGI (COLO 205 colon): > 50 µM | GI50 (EKVX NSCLC): > 50 µM | TGI (EKVX NSCLC): > 50 µM | GI50 (RXF 393 renal): 19.9 µM | TGI (RXF 393 renal): > 50 µM | GI50 (MDA-MB-435): > 50 µM | TGI (MDA-MB-435): > 50 µM | GI50 (OVCAR-4 ovarian): > 50 µM | TGI (OVCAR-4 ovarian): > 50 µM | GI50 (CCRF-CEM leukemia): > 50 µM | TGI (CCRF-CEM leukemia): > 50 µM | GI50 (M14 melanoma): > 50 µM | TGI (M14 melanoma): > 50 µM

COc1ccccc1NC(=O)C1=C(C)NC(C)=C(C(=O)Nc2ccccc2OC)C1/C=C/c1ccccc1
TGI (OVCAR-8 ovarian): > 100 µM | TGI (COLO 205 colon): > 100 µM | TGI (EKVX NSCLC): > 100 µM | TGI (SK-MEL-28 melanoma): > 100 µM | TGI (OVCAR-4 ovarian): > 100 µM | TGI (CCRF-CEM leukemia): > 100 µM | TGI (M14 melanoma): > 100 µM

N#CC(C(=O)CCCC(=O)Nc1ccc(Cl)cc1Cl)c1ccccc1 (stereo not drawn)
TGI (OVCAR-8 ovarian): > 100 µM | TGI (COLO 205 colon): > 100 µM | TGI (EKVX NSCLC): > 100 µM | TGI (RXF 393 renal): > 100 µM | TGI (SK-MEL-28 melanoma): > 100 µM | TGI (OVCAR-4 ovarian): > 100 µM | TGI (CCRF-CEM leukemia): > 100 µM | TGI (M14 melanoma): > 100 µM

CCOC(=O)c1cc(-c2ccc(-c3cc(C(=O)OCC)c(C#N)c(N)c3C#N)cc2)c(C#N)c(N)c1C#N
TGI (OVCAR-8 ovarian): > 100 µM | TGI (COLO 205 colon): > 100 µM | TGI (EKVX NSCLC): > 100 µM | TGI (RXF 393 renal): > 100 µM | TGI (SK-MEL-28 melanoma): > 100 µM | TGI (OVCAR-4 ovarian): > 100 µM | TGI (CCRF-CEM leukemia): > 100 µM | TGI (M14 melanoma): > 100 µM

CCOC(=O)/C(=C/c1cccc(Cl)c1)N(CC)CC
TGI (OVCAR-8 ovarian): > 100 µM | TGI (COLO 205 colon): > 100 µM | TGI (EKVX NSCLC): > 100 µM | TGI (SK-MEL-28 melanoma): > 100 µM | TGI (OVCAR-4 ovarian): > 100 µM | TGI (CCRF-CEM leukemia): > 100 µM | TGI (M14 melanoma): > 100 µM

Cc1c(C(=O)O)n(C)c(=O)n(C)c1=O
TGI (OVCAR-8 ovarian): > 100 µM | TGI (COLO 205 colon): > 100 µM | TGI (EKVX NSCLC): > 100 µM | TGI (RXF 393 renal): > 100 µM | TGI (SK-MEL-28 melanoma): > 100 µM | TGI (OVCAR-4 ovarian): > 100 µM | TGI (CCRF-CEM leukemia): > 100 µM | TGI (M14 melanoma): > 100 µM

Source: PubChem BioAssay (NCI)
